Experimental findings from US20230248740A1, “Pharmaceutical Composition Comprising Compound Capable of Penetrating Blood-Brain Barrier as Effective Ingredient for Preventing or Treating Brain Cancer” (DAEGU-GYEONGBUK MEDICAL INNOVATION FOUNDATION, priority 2017, published 2023) are described below.

The test system of one series is 448T cells. As to the kind of experiment: Growth inhibitory activity on brain tumor cells in animal model, 448T cells injected into the brain. Format: in vivo, Balb/c-nude mouse. The conditions noted are these: orally, 60 mg/kg. The procedure: (§1) More specifically, 1.0x10^4 NCC01 cells, a brain-tumor-patient-derived cell line, were injected into the brain of a Balb/c-nude mouse model, and after 3 days, the compound of Example 12 was orally administered at a dose of 10 mg/kg or 60 mg/kg. After administration of the compound, the survival rate of the mice based on the survival period was determined, and the size of the tumors generated in the mice was measured using MRI. Here, the group not treated with the compound of Example was used as a vehicle.
Specifically, the experiment was conducted in the same manner under the same conditions as in Experimental Example 14, with the exception that 448T cells were used in lieu of NCC01 cells, and the compound of each of Examples 12, 20 and 21 was orally administered at a dose of 60 mg/kg.

Series [1] deals with T1, LRRK2 protein (Homo sapiens, UniProt Q5S007).
T1 construct: endogenous in cells; host or cells: NCC01 (brain-tumor-patient-derived cell line)
T1 sequence (Q5S007 whole entry): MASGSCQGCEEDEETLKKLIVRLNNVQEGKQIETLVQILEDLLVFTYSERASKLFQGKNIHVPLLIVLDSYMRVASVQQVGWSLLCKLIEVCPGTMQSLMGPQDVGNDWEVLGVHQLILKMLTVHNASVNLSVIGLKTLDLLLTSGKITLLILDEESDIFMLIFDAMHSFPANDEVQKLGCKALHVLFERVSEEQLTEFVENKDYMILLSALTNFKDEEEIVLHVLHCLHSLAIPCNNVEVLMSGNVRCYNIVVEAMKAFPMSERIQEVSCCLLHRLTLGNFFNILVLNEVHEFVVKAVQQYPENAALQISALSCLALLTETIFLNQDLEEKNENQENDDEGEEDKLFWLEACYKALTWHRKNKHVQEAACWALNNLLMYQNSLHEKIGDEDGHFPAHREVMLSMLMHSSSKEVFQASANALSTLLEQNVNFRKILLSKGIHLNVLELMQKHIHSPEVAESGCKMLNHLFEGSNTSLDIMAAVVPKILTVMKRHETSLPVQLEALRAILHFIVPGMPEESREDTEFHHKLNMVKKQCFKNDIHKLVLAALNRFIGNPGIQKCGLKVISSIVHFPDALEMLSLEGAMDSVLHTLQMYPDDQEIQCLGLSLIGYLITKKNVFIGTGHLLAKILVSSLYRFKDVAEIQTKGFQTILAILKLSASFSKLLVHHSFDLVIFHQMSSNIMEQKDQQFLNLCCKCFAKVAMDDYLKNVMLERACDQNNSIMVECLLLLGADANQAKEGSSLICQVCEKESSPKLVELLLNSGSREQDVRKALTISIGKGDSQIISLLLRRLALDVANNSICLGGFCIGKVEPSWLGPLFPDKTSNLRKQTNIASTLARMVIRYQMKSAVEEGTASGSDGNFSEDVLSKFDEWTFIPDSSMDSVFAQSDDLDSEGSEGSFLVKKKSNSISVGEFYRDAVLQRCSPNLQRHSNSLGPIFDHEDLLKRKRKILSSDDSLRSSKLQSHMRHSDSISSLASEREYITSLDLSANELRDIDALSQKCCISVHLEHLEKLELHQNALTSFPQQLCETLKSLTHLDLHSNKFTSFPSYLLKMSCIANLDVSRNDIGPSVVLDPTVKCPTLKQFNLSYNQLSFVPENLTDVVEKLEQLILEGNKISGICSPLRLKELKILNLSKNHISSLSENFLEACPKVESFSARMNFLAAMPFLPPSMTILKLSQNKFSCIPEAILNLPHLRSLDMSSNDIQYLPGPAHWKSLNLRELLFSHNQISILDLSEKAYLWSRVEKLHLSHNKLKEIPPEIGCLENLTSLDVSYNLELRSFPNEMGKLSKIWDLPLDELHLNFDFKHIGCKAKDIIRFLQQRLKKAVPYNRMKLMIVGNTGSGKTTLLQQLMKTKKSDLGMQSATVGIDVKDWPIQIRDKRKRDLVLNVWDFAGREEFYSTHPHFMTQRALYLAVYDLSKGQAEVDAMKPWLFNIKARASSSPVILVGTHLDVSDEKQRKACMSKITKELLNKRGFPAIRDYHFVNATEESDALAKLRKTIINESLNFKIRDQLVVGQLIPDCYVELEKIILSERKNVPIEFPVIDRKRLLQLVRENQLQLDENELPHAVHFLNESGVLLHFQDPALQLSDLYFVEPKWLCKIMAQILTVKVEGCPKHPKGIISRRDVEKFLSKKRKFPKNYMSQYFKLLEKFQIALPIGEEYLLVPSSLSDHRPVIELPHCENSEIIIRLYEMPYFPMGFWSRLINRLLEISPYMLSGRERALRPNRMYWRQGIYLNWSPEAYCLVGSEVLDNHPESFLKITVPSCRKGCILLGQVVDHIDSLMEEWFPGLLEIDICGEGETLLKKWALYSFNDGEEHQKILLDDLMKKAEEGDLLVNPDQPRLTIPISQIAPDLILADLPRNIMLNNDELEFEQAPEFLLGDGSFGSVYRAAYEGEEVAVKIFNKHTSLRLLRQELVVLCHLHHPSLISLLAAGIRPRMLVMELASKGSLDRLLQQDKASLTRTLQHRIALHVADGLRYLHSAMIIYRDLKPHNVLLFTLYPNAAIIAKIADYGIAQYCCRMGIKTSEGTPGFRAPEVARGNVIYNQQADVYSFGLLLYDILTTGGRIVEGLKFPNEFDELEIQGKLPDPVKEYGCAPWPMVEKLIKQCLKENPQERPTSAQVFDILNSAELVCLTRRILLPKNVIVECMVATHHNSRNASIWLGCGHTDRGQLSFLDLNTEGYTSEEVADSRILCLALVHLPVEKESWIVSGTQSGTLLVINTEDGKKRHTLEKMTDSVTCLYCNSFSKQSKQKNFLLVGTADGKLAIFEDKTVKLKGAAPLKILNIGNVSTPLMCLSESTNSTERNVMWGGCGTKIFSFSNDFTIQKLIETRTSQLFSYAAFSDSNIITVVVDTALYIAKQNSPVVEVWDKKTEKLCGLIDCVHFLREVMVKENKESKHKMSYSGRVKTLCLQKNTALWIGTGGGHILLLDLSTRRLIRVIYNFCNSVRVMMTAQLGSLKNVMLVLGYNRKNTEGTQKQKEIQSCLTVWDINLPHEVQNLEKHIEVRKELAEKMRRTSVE
As to the kind of experiment: LRRK2 protein phosphorylation inhibitory activity, Western blotting, 448T cells. The following applies: after 1 day. Format: cell-based, human (brain-tumor-patient-derived cell line). The procedure: An experiment was conducted in order to evaluate the in-vitro drug efficacy of the compound of Comparative Example, known as an LRRK2 protein inhibitor.
(In western blotting, separated proteins are transferred to a membrane and probed.)

Series [2] concerns the target T1, LRRK2 protein. As to the kind of experiment: LRRK2 protein phosphorylation inhibitory activity, Western blotting, NCC01 cells. The conditions noted are these: after 1 day. Format: cell-based, human (brain-tumor-patient-derived cell line). On the procedure: In order to evaluate drug efficacy in vitro, a Western blotting experiment was performed using brain-tumor-patient-derived cell line NCC01 cells.
(§2) Here, the group not treated with the compound of Example was used as a vehicle.
as §2
Here, the group not treated with the compound of Example was used as a vehicle. […]
More specifically, 7.5x10^5 to 1.0x10^6 cells were treated with the compound of Comparative Example at a concentration of 0.1 or 1.0 µM, and after 1 day, samples were collected and evaluated for LRRK2 protein phosphorylation inhibitory activity through Western blotting. Here, the group not treated with the compound of Example was used as a vehicle.

The subject of series [3] is NCC01 cells. Description: Apoptosis induction activity, FACS, NCC01 cells. The class given is cell-based, human (brain-tumor-patient-derived cell line). The following applies: 100 nM, after 1 day. The procedure:
In order to evaluate whether apoptosis of brain tumor cells is induced by inhibiting LRRK2 protein phosphorylation, an experiment was conducted using FACS (fluorescence-activated cell sorting).
More specifically, 7.5x10^5 to 1.0x10^6 NCC01 cells were treated with the compound of each of Examples 11, 12 and 21 at a concentration of 100 nM, and after 1 day, samples were collected and subjected to FACS, thus assaying the apoptosis induction activity. The group not treated with the compound of Example was used as a control.

Series [4] concerns the target T1, LRRK2 protein. Description: LRRK2 protein phosphorylation inhibitory activity, Western blotting, NCC01 cells. Format: cell-based, human (brain-tumor-patient-derived cell line). The following applies: for LRRK2 protein phosphorylation: after 1 day.
Series [5] deals with NCC01 cells. As to the kind of experiment: Mitochondrial function, TMRE staining of activated mitochondria, NCC01 cells. The class given is cell-based, human (brain-tumor-patient-derived cell line). The conditions noted are these: after 1 day. On the procedure:
Specifically, NCC01 cells were treated with the compound of Example 12 at 1 µM, and after 1 day, TMRE (tetramethylrhodamine ethylester) dye for staining activated mitochondria was added thereto to evaluate changes in mitochondrial function. Here, the group not treated with the compound of Example was used as a control.
Specifically, brain tumor stem cell line NCC01 cells were treated with the compound of Example 12 at a concentration of 0.1 or 1 µM, and after 1 day, the mitochondria were stained as described in Experimental Example 9 to assay changes in the function thereof. Here, the group not treated with the compound of Example was used as a vehicle.

Series [6] concerns TRAP1 (TNF receptor associated protein 1). As to the kind of experiment: TRAP1 expression, Western blotting, brain tumor stem cell line NCC01. Format: cell-based, human (brain-tumor-patient-derived cell line). The following applies: NCC01 cells, 100 or 1,000 nM, after 1 day. The procedure:
Specifically, brain tumor stem cell line NCC01 cells were added with the compound of Example 12 at a concentration of 100 or 1,000 nM, and after 1 day, changes in the expression of TRAP1 were measured through Western blotting. Here, the group not treated with the compound of Example was used as a vehicle.

Series [7] deals with NCC01 cells. Description: Growth inhibitory activity on brain tumor cells in animal model, NCC01 cells injected into the brain. The conditions noted are these: orally. Format: in vivo, Balb/c-nude mouse. The procedure:
as §1

The subject of the next series is NESTIN protein. As to the kind of experiment: Expression of NESTIN protein (cancer stem cell marker), Western blotting, NCC01 cells. Format: cell-based, human (brain-tumor-patient-derived cell line). The following applies: 50 to 2,000 nM, after 1 day. The procedure:
More specifically, 1.0x10^6 NCC01 cells were treated with the compound of Example 12 at concentrations of 50, 100, 500, 1,000 and 2,000 nM. After 1 day, samples were collected and the expression of NESTIN protein, which is a cancer stem cell marker involved in the intracellular signaling pathway, was measured through Western blotting. Here, the group not treated with the compound of Example was used as a vehicle.

The next series concerns U87MG cells. As to the kind of experiment: Therapeutic effect on brain tumor upon co-administration with Avastin, U87MG orthotopic mouse model. The class given is in vivo, Balb/c-nude mice. The conditions noted are these: Example 12 orally 30 mg/kg in combination with Avastin intraperitoneally 10 mg/kg, vs Avastin. The procedure: More specifically, orthotopic mouse models were manufactured using 5-week-old Balb/c-nude mice. U87MG cells (ATCC, USA), a brain tumor cell line, were injected 3.5 mm deep at a position 2.2 mm to the left of and 0.5 mm behind the bregma using a stereotaxic device. 3 days after injection of the cells, mice were divided into three groups of 5 mice per group (a control (vehicle), a group administered with Avastin, and a group administered with the compound of Example 12 and Avastin), and the drug was administered thereto. The compound of Example 12 was orally administered at a dose of 30 mg/kg and Avastin was injected intraperitoneally at a dose of 10 mg/kg.

For series [8], the system named is NCC01 cells. Description: Sphere size under hypoxic conditions with shRNA against the LRRK2 gene, NCC01 cells. Format: cell-based, human (brain-tumor-patient-derived cell line). The conditions noted are these: NCC01 cells exposed to hypoxic conditions. On the procedure:
(§3) Specifically, NCC01 and 528NS cells were exposed to hypoxic conditions and treated with two kinds of shRNA against the LRRK2 gene, after which changes in the size of spheres were measured. Here, a control was shRNA (shNT) against luciferase.

In a further series the test system is 528NS cells. Description: Sphere size under hypoxic conditions with shRNA against the LRRK2 gene, 528NS cells. Format: cell-based. The following applies: 528NS cells exposed to hypoxic conditions. The procedure: as §3
[9] abbreviates: 100 or 1,000 nM, compared to the vehicle.

For the compound `C[C@@H]1CN(c2cc(-c3n[nH]c4ccc(OC5(C)CC5)cc34)ncn2)C[C@H](C)O1` [Example 20, (2S,6R)-2,6-Dimethyl-4-(6-(5-(1-Methylcyclopropoxy)-1H-Indazol-3-yl)Pyrimidin-4-yl)Morpholine], the “tumor at the position to which the 448T cells were injected” value with 448T cells is “no tumor was observed”.
For `COc1cc(C(=O)N2CCC(N3CCN(C)CC3)CC2)ccc1Nc1ncc2c(n1)N(C)c1ccccc1C(=O)N2C` [Example 10, 2-[(2-Methoxy-4-[[4-(4-Methylpiperazin-1-yl)Piperidin-1-yl]Carbonyl]Phenyl)Amino]-5,11-Dimethyl-5,11-Dihydro-6H-Pyrimido[4,5-b][1,4]Benzodiazepin-6-One], the LRRK2 protein phosphorylation entry at LRRK2 protein [1] (setting [9]) and on LRRK2 protein [2] (setting [9]) was “significantly inhibited” each time. Also, the “phosphorylated LRRK2 protein” value on LRRK2 protein [2] (concentration of 100 nM) is reported as “detected”.
In the case of `N#Cc1cccc(-c2c[nH]c3nccc(N4CCOCC4)c23)c1` [Example 21, 3-(4-Morpholino-1H-Pyrrolo[2,3-b]Pyridin-3-yl)Benzonitrile], the LRRK2 protein phosphorylation result on LRRK2 protein [1] (setting [9]) and at LRRK2 protein [2] (setting [9]) was “significantly inhibited” each time. Further, the “apoptosis of NCC01 cells” value in the series with NCC01 cells [3] is recorded as “induced”. The “tumor at the position to which the 448T cells were injected” value with 448T cells is on record as “no tumor was observed”.
Regarding `CNc1nc(Nc2cn(C(C)(C)C#N)nc2C)ncc1C(F)(F)F` [Comparative Example, 2-Methyl-2-[3-Methyl-4-[[4-(Methylamino)-5-(Trifluoromethyl)Pyrimidin-2-yl]Amino]Pyrazol-1-yl]Propanenitrile, reference compound], the LRRK2 protein phosphorylation result at LRRK2 protein [1] (0.1 or 1.0 µM, Examples stated by contrast ('unlike' = inhibited)) is reported as “did not inhibit”; on LRRK2 protein [2] (0.1 or 1.0 µM), “did not inhibit”.
`CNc1nc(Nc2ccc(C(=O)N3CCOCC3)cc2OC)ncc1C(F)(F)F` [Example 12, (3-Methoxy-4-(4-(Methylamino)-5-(Trifluoromethyl)Pyrimidin-2-Ylamino)Phenyl)(Morpholino)Methanone]: at LRRK2 protein [4] (NCC01 cells, 100 nM, starting 1 day after treatment, samples after 1, 4 and 8 days, reduction continued over time), the “extent of LRRK2 protein phosphorylation over time” value was “drastically reduced”. Further, the LRRK2 protein phosphorylation entry was “inhibited” at LRRK2 protein [4] (NCC01 cells, 50, 100, 500, 1,000 and 2,000 nM, concentration-dependent); “mostly inhibited” at LRRK2 protein [4] (NCC01 cells, concentrations of 50 and 100 nM); “significantly inhibited” at LRRK2 protein [1] (setting [9]); “inhibited most” on LRRK2 protein [1] (concentration of 50 nM); “significantly inhibited” on LRRK2 protein [2] (setting [9]). In the series with NCC01 cells [5] (1 µM), the “fragmentation of nuclei in the cells” value is “occurred”. The “degree of color development of the TMRE dye” value in the series on NCC01 cells [5] (1 µM, vs control) was “decreased”. The “activity of the mitochondria present in the brain tumor stem cells” value in the series with NCC01 cells [5] (0.1 or 1 µM, compared to the control) is given as “inhibited”. The “apoptosis of NCC01 cells” value in the series on NCC01 cells [3] is “induced”. Also, the “apoptosis rate relative to the compounds of Examples 11 and 21” value in the series on NCC01 cells [3] was “about 3 times”. Further, in the series with 448T cells, the “tumor at the position to which the 448T cells were injected” value was “no tumor was observed”. Also, in [6], the “expression of TRAP1” value is “inhibited”. For the same compound, the “tumor at the position to which the NCC01 cells were injected (MRI)” value with NCC01 cells [7] (10 mg/kg or 60 mg/kg) is on record as “no tumor was observed”. In addition, in the series with NCC01 cells [7] (10 mg/kg, vehicle 54 days), the “average survival period of the mice” value was found to be 71 days. Moreover, the “survival of all the mice” value in the series with NCC01 cells [7] (60 mg/kg, vehicle average 54 days) is recorded as at least 100 days. Besides, the “expression of NESTIN protein” value with NESTIN protein is “reducing”. For the same compound, the “therapeutic effect of Avastin on brain tumors (survival)” value in the series on U87MG cells is “further significantly increased”.
As to `Cn1cc(-c2c[nH]c3ncnc(N4CCOCC4)c23)cc1C#N` [Example 22, 1-Methyl-4-(4-Morpholino-7H-Pyrrolo[2,3-d]Pyrimidin-5-yl)-1H-Pyrrole-2-Carbonitrile], at LRRK2 protein [2] (setting [9]), the LRRK2 protein phosphorylation result is listed as “significantly inhibited”.
Regarding “LRRK2 shRNA-1: shRNA against the LRRK2 gene, SEQ ID NO: 33 (CCGGCCACAAATTCAACGGAAAGAACTCGAGTTCTTTCCGTTGAATTTGTGGTTTTT)”, the sphere size result in the series with NCC01 cells [8] and in the series with 528NS cells was “suppressed” in each case.
In the case of “LRRK2 shRNA-2: shRNA against the LRRK2 gene, SEQ ID NO: 34 (CCGGCCCAAATTGGTGGAACTCTTACTCGAGTAAGAGTTCCACCAATTTGGGTTTTT)”, the sphere size entry with NCC01 cells [8] and with 528NS cells was “suppressed” throughout.
As for `CCNc1nc(Nc2cc(F)c(C(=O)N3CCOCC3)cc2OC)ncc1C(F)(F)F` [Example 11, (4-(4-(Ethylamino)-5-(Trifluoromethyl)Pyrimidin-2-Ylamino)-2-Fluoro-5-Methoxyphenyl) (Morpholino)Methanone], the LRRK2 protein phosphorylation entry on LRRK2 protein [1] (setting [9]) and at LRRK2 protein [2] (setting [9]) was “significantly inhibited” each time. Moreover, the “apoptosis of NCC01 cells” value in the series with NCC01 cells [3] was “induced”.
